Measured values: US20230127202A1, “LONG-TERM PROBIOTIC BACTERIAL STORAGE AT AMBIENT TEMPERATURE” (CORNELL UNIVERSITY, priority 2021, published 2023)

Tests used:
[1] = test system: LGG isolates; assay: Antimicrobial susceptibility (MIC) test, Sensititre COMPGP1F gram-positive panel, CLSI interpretation; format: cell-based, Lactobacillus rhamnosus GG; conditions: all LGG isolates after heat treatment and storage
Protocol: Antimicrobial susceptibility or minimum inhibitory concentration (MIC) test was performed using the Sensititre® system COMPGP1F gram-positive systemic panel. The test used the Clinical and Laboratory Standards Institute (CLSI) guidelines for interpretation of MIC values. All of the isolates were examined for susceptibility to 23 antimicrobial agents included in the gram-positive panel of the National Antimicrobial Resistance Monitoring System (NARMS), including amikacin, ampicillin, augmentin, cefazolin, cefovecin, cefpodoxime, cephalothin, chloramphenicol, clindamycin, doxycycline, enrofloxacin, erythromycin, gentamicin, imipenem, marbofloxacin, minocycline, nitrofurantoin, oxacillin + 2% NaCl, penicillin, pradofloxacin, rifampin, tetracycline, trim/sulfa.

[2] = test system: Lactobacillus rhamnosus GG (LGG, ATCC 53103); assay: Bacterial survivability test (colony count) of LGG stored in food-grade oils at room temperature; format: physicochemical; conditions: under all conditions
Protocol: PBS at pH 7.4 was used as a control for each temperature. Each individual vial containing 20 mL of oil was heated to reach the desired temperature and the temperature equilibrated for 15-20 minutes. To each heated vial, 0.05 g of LGG powder was added. For prebiotic treatment, 0.05 g of inulin were added before the addition of LGG. The vial containing the oil-bacteria mixture was held at temperature for 1 minute with gentle stirring. Finally, the vial was taken out of the oil bath and cooled to room temperature over a range of 25 to 45 minutes depending on the heating treatments. As control samples, the LGG powder was added to each type of oil and PBS (pH 7.4) with the samples not heated. FIG. 1A illustrates the experimental set up for the heat treatment.
To prevent bacterial growth during storage of probiotics in aqueous solutions, oil was used as a barrier to water penetration and thus serves to preserve and prevent spoilage of the probiotic products. Before the storage of bacteria in oil, the LGG concentration in each type of oil was quantified and recorded as the initial concentration. […] The control medium was 20 mL of PBS at pH 7.4. For the control sample, 0.05 g of the bacteria were added to PBS and, after mixing, cultured on MRS agar plates. […] The survivability of the bacteria was assessed at specific time points over a year using the colony count technique. […]

Compound	antimicrobial sensitivity of the isolates (CLSI interpretation of MIC) [1]	effect on survival rates of the bacteria [2]
augmentin	susceptible	
CC1(C)S[C@@H]2[C@H](NC(=O)[C@H](N)c3ccccc3)C(=O)N2[C@H]1C(=O)O [ampicillin]	intermediate sensitivity	
penicillin	resistance	
inulin		reduced the survival rates
CC[C@H]1OC(=O)[C@H](C)[C@@H](O[C@H]2C[C@@](C)(OC)[C@@H](O)[C@H](C)O2)[C@H](C)[C@@H](O[C@@H]2O[C@H](C)C[C@H](N(C)C)[C@H]2O)[C@](C)(O)C[C@@H](C)C(=O)[C@H](C)[C@@H](O)[C@]1(C)O [erythromycin]	susceptible	
Cc1nnc(SCC2=C(C(=O)O)N3C(=O)[C@@H](NC(=O)Cn4cnnn4)[C@H]3SC2)s1 [cefazolin]	resistance	
oxacillin [oxacillin + 2% NaCl]	susceptible	
